In ChEMBL document CHEMBL1201862, “PubChem BioAssay data set” (2004):
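Cells were grown in 96-well plates and exposed to each compound for 48 hours at five concentrations; endpoints were interpolated linearly between bracketing concentrations, or set to the highest concentration if not reached. GI50 marks 50% less growth.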 Calls of active or inactive are those of the source. No stated cut-off is given here; in the data, active = GI50 up to about 1.1 µM and inactive = higher.

Assays:
Test in all cases: NCI-60 cell line screen, 48 h
786-0 = system: 786-0
A498 = system: A498
A549 = system: A549
ACHN = system: ACHN
CAKI-1 = system: CAKI-1
CCRF-CEM = system: CCRF-CEM
COLO 205 = system: COLO 205
DLD-1 = system: DLD-1
DMS-114 = system: DMS-114
DMS-273 = system: DMS-273
EKVX = system: EKVX
HCC 2998 = system: HCC 2998
HCT-116 = system: HCT-116
HCT-15 = system: HCT-15
HL-60 = system: HL-60
HOP-18 = system: HOP-18
HOP-62 = system: HOP-62
HOP-92 = system: HOP-92
HT-29 = system: HT-29
IGROV-1 = system: IGROV-1
K562 = system: K562
KM-20L2 = system: KM-20L2
KM12 = system: KM12
LOX IMVI = system: LOX IMVI
LXFL 529 = system: LXFL 529
M14 = system: M14
M19-MEL = system: M19-MEL
MOLT-4 = system: MOLT-4
Malme-3M = system: Malme-3M
NCI-H226 = system: NCI-H226
NCI-H23 = system: NCI-H23
NCI-H460 = system: NCI-H460
NCI-H522 = system: NCI-H522
OVCAR-3 = system: OVCAR-3
OVCAR-5 = system: OVCAR-5
OVCAR-8 = system: OVCAR-8
RPMI-8226 = system: RPMI-8226
RXF 393 = system: RXF 393
RXF 631 = system: RXF 631
SF-268 = system: SF-268
SF-295 = system: SF-295
SF-539 = system: SF-539
SK-MEL-28 = system: SK-MEL-28
SK-MEL-2 = system: SK-MEL-2
SK-MEL-5 = system: SK-MEL-5
SK-OV-3 = system: SK-OV-3
SN12C = system: SN12C
SNB-19 = system: SNB-19
SNB-75 = system: SNB-75
SNB-78 = system: SNB-78
SR = system: SR
SW-620 = system: SW-620
TK-10 = system: TK-10
U-251 = system: U-251
UACC-257 = system: UACC-257
UACC-62 = system: UACC-62
UO-31 = system: UO-31
XF498 = system: XF498

C=C1C(=O)C23C(O)C1CCC2C12CO[C@]3(O)[C@@H](O)C1C(C)(C)CCC2O (stereo partly drawn)
GI50 (786-0): 12.2 µM (inactive)
GI50 (A498): 21.2 µM (inactive)
GI50 (A549): 18.5 µM (inactive)
GI50 (ACHN): 14.1 µM (inactive)
GI50 (CAKI-1): 15.2 µM (inactive)
GI50 (CCRF-CEM): 1.63 µM (inactive)
GI50 (COLO 205): 2.89 µM (inactive)
GI50 (DLD-1): 15.3 µM (inactive)
GI50 (DMS-114): 5.82 µM (inactive)
GI50 (DMS-273): 14.7 µM (inactive)
GI50 (EKVX): 15 µM (inactive)
GI50 (HCC 2998): 16.1 µM (inactive)
GI50 (HCT-116): 10.4 µM (inactive)
GI50 (HCT-15): 11.9 µM
GI50 (HL-60): 5.01 µM (inactive)
GI50 (HOP-18): 11.7 µM (inactive)
GI50 (HOP-62): 24.4 µM (inactive)
GI50 (HOP-92): 3.49 µM (inactive)
GI50 (HT-29): 13.5 µM (inactive)
GI50 (IGROV-1): 15.1 µM (inactive)
GI50 (K562): 3.67 µM (inactive)
GI50 (KM-20L2): 16.1 µM (inactive)
GI50 (KM12): 16.1 µM (inactive)
GI50 (LOX IMVI): 16.5 µM (inactive)
GI50 (LXFL 529): 2.11 µM (inactive)
GI50 (M14): 11.6 µM (inactive)
GI50 (M19-MEL): 10.7 µM (inactive)
GI50 (MOLT-4): 3.87 µM (inactive)
GI50 (Malme-3M): 5.92 µM (inactive)
GI50 (NCI-H226): 18.8 µM (inactive)
GI50 (NCI-H23): 19.6 µM (inactive)
GI50 (NCI-H460): 11.2 µM (inactive)
GI50 (NCI-H522): 0.798 µM (active)
GI50 (OVCAR-3): 16.4 µM (inactive)
GI50 (OVCAR-5): 20.2 µM (inactive)
GI50 (OVCAR-8): 7.5 µM (inactive)
GI50 (RPMI-8226): 3.75 µM (inactive)
GI50 (RXF 393): 7.93 µM (inactive)
GI50 (RXF 631): 13.7 µM (inactive)
GI50 (SF-268): 13.9 µM (inactive)
GI50 (SF-295): 16.7 µM (inactive)
GI50 (SF-539): 14.7 µM (inactive)
GI50 (SK-MEL-28): 4.45 µM (inactive)
GI50 (SK-MEL-2): 15.7 µM (inactive)
GI50 (SK-MEL-5): 22.4 µM (inactive)
GI50 (SK-OV-3): 20.3 µM (inactive)
GI50 (SN12C): 14.3 µM (inactive)
GI50 (SNB-19): 14.8 µM (inactive)
GI50 (SNB-75): 15.7 µM (inactive)
GI50 (SNB-78): 6.55 µM (inactive)
GI50 (SR): 4.31 µM (inactive)
GI50 (SW-620): 5.81 µM (inactive)
GI50 (TK-10): 19.4 µM (inactive)
GI50 (U-251): 17.4 µM (inactive)
GI50 (UACC-257): 11.6 µM (inactive)
GI50 (UACC-62): 11.9 µM (inactive)
GI50 (UO-31): 17.1 µM (inactive)
GI50 (XF498): 2.44 µM (inactive)
